Article PMC4152863 (Regulatory peptides, 2013)
“And” between values parts separate entries of the source, which are not always exact repeats. Identical values can stand only once. “Also recorded” adds a separate entry of the source. Like-named read-outs stand apart in the source and are kept apart here.

What was measured:
[1] = molecular target: T1, novel, non-AT1, non-AT2 angiotensin binding site (neurolysin) (Rattus norvegicus, UniProt P42676); settings: cited from earlier work
[2] = molecular target: T1, novel, non-AT1, non-AT2 angiotensin binding site (neurolysin); assay: Unmasking of specific 125I-SI Ang II binding in membranes
[3] = molecular target: T1, novel, non-AT1, non-AT2 angiotensin binding site (neurolysin); assay: Inhibition or enhancement of PCMB-unmasked 125I-SI Ang II binding in membranes
neurolysin = settings: cited from earlier work
Sprague-Dawley rats = assay: Drinking test after icv Ang II with or without HgCl2; assay type: in vivo, rat; settings: ICV 200 pmoles HgCl2 with 100 pmoles Ang II; water intake over 30 min
liver AT1 receptors = liver AT1 receptors (Rattus norvegicus, UniProt P25095); assay type: binding; settings: for Kd of 125I-SI Ang II binding: liver
Sequence of liver AT1 receptors (P25095 whole entry): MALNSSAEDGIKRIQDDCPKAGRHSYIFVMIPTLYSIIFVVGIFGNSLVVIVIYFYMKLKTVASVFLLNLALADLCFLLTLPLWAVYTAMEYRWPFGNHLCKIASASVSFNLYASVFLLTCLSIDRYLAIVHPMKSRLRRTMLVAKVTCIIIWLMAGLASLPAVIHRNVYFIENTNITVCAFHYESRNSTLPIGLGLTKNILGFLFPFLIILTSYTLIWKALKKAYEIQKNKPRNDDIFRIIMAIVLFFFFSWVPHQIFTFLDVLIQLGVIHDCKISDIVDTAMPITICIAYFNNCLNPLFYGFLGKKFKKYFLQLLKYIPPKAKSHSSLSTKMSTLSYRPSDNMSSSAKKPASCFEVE

thimet oligopeptidase = settings: cited from earlier work
[4] = brain and testis, ~100 μM primary screening or range of concentrations
[5] = 100 μM test compound, 100 μM PCMB, brain and testis

T1 sequence (P42676 38-704): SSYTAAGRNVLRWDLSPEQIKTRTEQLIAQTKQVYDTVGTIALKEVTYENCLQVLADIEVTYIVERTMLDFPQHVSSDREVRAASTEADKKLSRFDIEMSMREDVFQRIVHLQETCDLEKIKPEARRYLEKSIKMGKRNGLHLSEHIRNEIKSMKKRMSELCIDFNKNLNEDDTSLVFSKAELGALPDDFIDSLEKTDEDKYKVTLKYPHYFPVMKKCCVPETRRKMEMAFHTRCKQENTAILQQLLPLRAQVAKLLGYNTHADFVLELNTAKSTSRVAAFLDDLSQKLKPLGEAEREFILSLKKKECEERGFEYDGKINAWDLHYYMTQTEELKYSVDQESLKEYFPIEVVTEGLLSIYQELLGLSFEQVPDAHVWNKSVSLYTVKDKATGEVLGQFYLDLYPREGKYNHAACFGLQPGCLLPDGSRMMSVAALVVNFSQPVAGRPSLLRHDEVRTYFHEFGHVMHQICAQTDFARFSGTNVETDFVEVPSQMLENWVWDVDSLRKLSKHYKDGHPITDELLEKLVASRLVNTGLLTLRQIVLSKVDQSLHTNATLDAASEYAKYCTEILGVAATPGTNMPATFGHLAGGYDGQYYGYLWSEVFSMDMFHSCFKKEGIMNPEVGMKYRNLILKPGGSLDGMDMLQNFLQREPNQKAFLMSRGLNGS

Question: With `OCCS` [2-mercaptoethanol, 2-mercaptoethanol] as the molecule, how does the “reversal of PCMB unmasking of Ang II binding (in words)” value [1] read?
Answer: The value was “reversed”.

Question: For `O=C(O)c1ccc(O)cc1` [4-hydroxybenzoic acid], which “unmasking of specific 125I-SI Ang II binding in the absence of PCMB (in words)” value (shortened to “unmasking … of PCMB (in words)”) [2, 4] is on record?
Answer: The value was “did not promote”.

Question: Which “unmasking … of PCMB (in words)” value [2] does the source give for `O=C(O)c1cc[c]([Hg][OH])cc1` [4-hydroxymercuribenzoate, 4-hydroxymercuribenzoic acid] here?
Answer: Its value is “unmasked non-AT1, non-AT2 binding independent of PCMB; also recorded: partial unmasking; also recorded: capable of fully unmasking”.

Question: And the “concentration for optimal (peak) unmasking of 125I-SI Ang II binding” value (shortened to “concentration for optimal”) ([2]; brain and testis)?
Answer: Its value is ~ 300 μM.

Question: What about the “concentration for optimal” value ([2]; brain and testis, listed as 4-OH Hg bza) of the same molecule?
Answer: The value was 300 µM.

Question: And the “inhibition of PCMB-unmasked 125I-SI Ang II binding, primary screening (in words)” value (“inhibition … primary screening (in words)” for short) [3]?
Answer: Its value is “moderately inhibited”.

Question: Which “inhibition … primary screening (in words)” value [3] does the source give for `O=[N+]([O-])[O-].[Ag+]` [AgNO3, silver nitrate] here?
Answer: The value was “significantly reduced; also recorded: substantially inhibited”.

Question: And the “IC50's for inhibition of 125I-SI Ang II binding” value (“IC50's for inhibition” below) ([3]; brain and testis, 100 μM PCMB)?
Answer: Its value is 1 to 20 µM.

Question: What about the “IC50 for inhibition of 125I-SI Ang II binding” value (“IC50 for inhibition” for short) ([3]; brain, 100 μM PCMB) of the same molecule?
Answer: The value was 1.77 µM.

Question: What about the “IC50 for inhibition” value ([3]; testis, 100 μM PCMB) of the same molecule?
Answer: Its value is 21.3 µM.

Question: Which results are given for `O[C@@H](CS)[C@@H](O)CS` [DTT]?
Answer: inhibition of the enzymatic activity of neurolysin (in words) (neurolysin): can be inhibited; reversal of PCMB unmasking of Ang II binding (in words) [1]: reversed

Question: With `Cc1cc(-c2ccc(/N=N/c3ccc4c(S(=O)(=O)O)cc(S(=O)(=O)O)c(N)c4c3O)c(C)c2)ccc1/N=N/c1ccc2c(S(=O)(=O)O)cc(S(=O)(=O)O)c(N)c2c1O` [Evans blue] as the molecule, how does the “unmasking … of PCMB (in words)” value [2, 4] read?
Answer: The value was “unable to unmask”.

Question: And the “effect on 125I-SI Ang II binding in the presence of PCMB (in words)” value ([3]; 100 μM, brain and testis)?
Answer: The value was “enhanced”.

Question: And the “Rmax for enhancement of specific 125I-SI Ang II binding in the presence of PCMB” value ([3]; brain, 100 μM PCMB)?
Answer: Its value is 163±56%.

Question: And the “Rmax for enhancement of specific 125I-SI Ang II binding in the presence of PCMB” value ([3]; testis, 100 μM PCMB)?
Answer: The value was 442±340%.

Question: For `[Cl][Hg][Cl]` [HgCl2, mercuric chloride], which “inhibition … primary screening (in words)” value [3] is on record?
Answer: Its value is “significantly reduced; also recorded: substantially inhibited”.

Question: What about the “IC50's for inhibition” value ([3]; brain and testis, 100 μM PCMB) of the same molecule?
Answer: The value was 1 to 20 µM.

Question: What about the “IC50 for inhibition” value ([3]; brain, 100 μM PCMB) of the same molecule?
Answer: The value was 14.3 µM.

Question: And the “IC50 for inhibition” value ([3]; testis, 100 μM PCMB)?
Answer: Its value is 11.0 µM.

Question: What about the “effect on dipsogenic response to Ang II (in words)” value (Sprague-Dawley rats) of the same molecule?
Answer: Its value is “lack of effect; also recorded: did not affect”.

Question: And the “Bmax of 125I-SI Ang II binding” value (liver AT1 receptors)?
Answer: The value was 20.8±1.8 and 20.6±2.4 and 20.4±4.4.

Question: And the “effect on 125I-SI Ang II binding to AT1 receptors (in words)” value (liver AT1 receptors)?
Answer: Its value is “lack of effect; also recorded: did not impair”.

Question: And the “Kd of 125I-SI Ang II binding” value (liver AT1 receptors; 10 μM HgCl2)?
Answer: Its value is 2.93±0.40.

Question: What about the “Kd of 125I-SI Ang II binding” value (liver AT1 receptors; 30 μM HgCl2) of the same molecule?
Answer: The value was 2.41±0.46.

Question: And the “Kd of 125I-SI Ang II binding” value (liver AT1 receptors; 100 μM HgCl2)?
Answer: The value was 3.15±1.1.

Question: Which “concentration for optimal” value ([2]; brain and testis) does the source give for `O=C(O)c1cc[c]([Hg][Cl])cc1` [PCMB, parachloromercuribenzoic acid] here?
Answer: Its value is 100 to 300 µM.

Question: What about the “unmasking of Ang II binding to thimet oligopeptidase (in words)” value (thimet oligopeptidase) of the same molecule?
Answer: Its value is “does not unmask”.

Question: Which “inhibition … primary screening (in words)” value [3] does the source give for `O=[N+]([O-])[O-].[Na+]` [Sodium nitrate] here?
Answer: Its value is “did not show any inhibition”.

Question: For `NCCCNCCS` [WR-1065], which “inhibition … primary screening (in words)” value [3, 5] is on record?
Answer: Its value is “did not inhibit”.

Question: For `NCCCNCCSP(=O)(O)O` [amifostine], which “inhibition of PCMB unmasking of 125I-SI Ang II binding, primary screening” value (“inhibition of PCMB unmasking … primary screening” for short) [3, 5] is on record?
Answer: Its value is “more than 50%”.

Question: And the “inhibition in secondary screening” value ([3]; at or above 100 μM, 100 μM PCMB, data not shown)?
Answer: The value was under 50%.

Question: Which “inhibition of PCMB unmasking … primary screening” value [3, 5] does the source give for `NCCS` [cysteamine] here?
Answer: Its value is “more than 50%”.

Question: And the “IC50 for inhibition” value ([3]; brain, 100 μM PCMB)?
Answer: Its value is 28.1 µM.

Question: And the “IC50 for inhibition” value ([3]; testis, 100 μM PCMB)?
Answer: The value was 138 µM.

Question: With `OO` [hydrogen peroxide] as the molecule, how does the “inhibition … primary screening (in words)” value [3] read?
Answer: The value was “did not inhibit”.

Question: Which “unmasking … of PCMB (in words)” value [2] does the source give for `[Cl][Mn][Cl]` [manganese chloride] here?
Answer: The value was “greater unmasking in testis compared to brain”.

Question: For `COC([CH2][Hg+])CNC(=O)c1ccccc1OCC(=O)O.[OH-]` (stereo not shown) [mersalyl acid], which “unmasking of 125I-SI Ang II binding at concentrations up to 1 mM (in words)” value ([2]; brain and testis, absence of PCMB, data not shown) is on record?
Answer: Its value is “no ability to unmask; also recorded: did not unmask”.

Question: What about the “inhibition … primary screening (in words)” value [3] of the same molecule?
Answer: Its value is “full inhibition”.

Question: And the “inhibition of PCMB unmasking … primary screening” value [3, 5]?
Answer: Its value is “more than 50%”.

Question: What about the “IC50's for inhibition” value ([3]; brain and testis, 100 μM PCMB) of the same molecule?
Answer: Its value is 1 to 20 µM.

Question: What about the “IC50 for inhibition” value ([3]; brain, 100 μM PCMB) of the same molecule?
Answer: Its value is 1.10 µM.

Question: What about the “IC50 for inhibition” value ([3]; testis, 100 μM PCMB) of the same molecule?
Answer: Its value is 2.27 µM.
